± gives the standard deviation of the averaged measurements.
Legend:
Assay in all cases: level (log10 ratio to DMSO vehicle control); higher = higher biomarker level / cell amount than vehicle control
Conditions in all cases: in DMSO
[1] = compound: O=S(=O)(O)C(F)(F)C(F)(F)C(F)(F)C(F)(F)C(F)(F)C(F)(F)C(F)(F)C(F)(F)C(F)(F)C(F)(F)F [Sodium perfluorodecanesulfonate]
Protocol: (§1)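 BioMAP Diversity Plus panel of 12 human primary cell co-culture systems (3C, 4H, LPS, SAg, BT, BF4T, BE3C, CASM3C, HDF3CGF, KF3CT, MyoF, Mphg). Compounds were added 1 h before stimulation and left for 24 h (MyoF 48 h; BT 72 h for soluble read-outs or 6 d for IgG). Biomarkers were read by ELISA, cytotoxicity by SRB, PBMC viability and proliferation by Alamar Blue. Each well value was divided by the mean of 8 DMSO control wells on the same plate and log10 transformed; duplicate blinded samples were tested at 4 concentrations.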

[2] = compound: O=C(O)C=CC(F)(C(F)(F)F)C(F)(F)F [3-(Perfluoroisopropyl)-2-propenoic acid]
Protocol: as §1

[3] = compound: O=S(=O)(F)C(F)(F)C(F)(F)C(F)(F)C(F)(F)C(F)(F)C(F)(F)C(F)(F)C(F)(F)F [Perfluorooctanesulfonyl fluoride]
Protocol: as §1

Nonafluoropentanamide = compound: NC(=O)C(F)(F)C(F)(F)C(F)(F)C(F)(F)F [Nonafluoropentanamide]
Protocol: as §1

Hexafluoroamylene glycol = compound: OCC(F)(F)C(F)(F)C(F)(F)CO [Hexafluoroamylene glycol]
Protocol: as §1

[4] = compound: COC(=O)C(F)(F)C(F)(F)OC(F)(C(F)(F)F)C(F)(F)OC(F)=C(F)F [Methyl perfluoro(3-(1-ethenyloxypropan-2-yloxy)propanoate)]
Protocol: as §1

Row | Test System | level (log10) ([1]; 1500 nM) | level (log10) ([1]; 4400 nM) | level (log10) ([1]; 13000 nM) | level (log10) ([1]; 40000 nM) | level (log10) ([2]; 6700 nM) | level (log10) ([2]; 20000 nM) | level (log10) ([2]; 60000 nM) | level (log10) ([3]; 6700 nM) | level (log10) ([3]; 20000 nM) | level (log10) ([3]; 60000 nM) | level (log10) (Nonafluoropentanamide; 6700 nM) | level (log10) (Nonafluoropentanamide; 20000 nM) | level (log10) (Nonafluoropentanamide; 60000 nM) | level (log10) (Hexafluoroamylene glycol; 6700 nM) | level (log10) (Hexafluoroamylene glycol; 20000 nM) | level (log10) (Hexafluoroamylene glycol; 60000 nM) | level (log10) ([4]; 6700 nM) | level (log10) ([4]; 20000 nM)
1 | HDF3CGF:EGFR | -0.009 ± 0.067 | -0.0295 ± 0.0092 | -0.001 ± 0.0014 | 0.079 ± 0.0099 | -0.0025 ± 0.005 | 0.0015 ± 0.005 | 0.0265 ± 0.025 | -0.0255 ± 0.067 | -0.089 ± 0.17 | -0.0715 ± 0.19 | -0.067 ± 0.058 | -0.048 ± 0.016 | -0.002 ± 0.042 | -0.028 ± 0.02 | -0.0305 ± 0.04 | -0.0035 ± 0.005 | 0.0505 ± 0.054 | -0.005 ± 0.12
2 | HDF3CGF:M-CSF | 0.0325 ± 0.0078 | 0.009 ± 0.018 | 0.037 ± 0.035 | 0.0405 ± 0.0035 | -0.0005 ± 0.0021 | 0.001 ± 0.0028 | 0 ± 0.0057 | 0.0175 ± 0.005 | 0.0015 ± 0.0078 | -0.013 ± 0.058 | -0.006 ± 0.017 | 0.01 ± 0.0014 | 0.0095 ± 0.021 | -0.014 ± 0.02 | -0.0235 ± 0.066 | -0.0495 ± 0.077 | 0.031 ± 0.058 | -0.074 ± 0.069
3 | HDF3CGF:MMP-1 | -0.0125 ± 0.0092 | -0.0145 ± 0.0078 | -0.007 ± 0.024 | 0.027 ± 0.024 | 0.0005 ± 0.012 | 0.008 ± 0.011 | 0.0005 ± 0.0064 | 0.023 ± 0.03 | 0.029 ± 0.024 | 0.006 ± 0.051 | 0.0065 ± 0.0092 | 0.011 ± 0.0085 | 0.0085 ± 0.012 | 0.004 ± 0.0071 | -0.0015 ± 0.04 | -0.022 ± 0.064 | 0.0115 ± 0.011 | 0.02 ± 0.033
4 | HDF3CGF:PAI-I | 0.0815 ± 0.042 | 0.159 ± 0.0028 | 0.129 ± 0.041 | 0.147 ± 0.038 | -0.0085 ± 0.018 | -0.0215 ± 0.015 | -0.0005 ± 0.032 | 0.0235 ± 0.12 | 0.035 ± 0.013 | 0.101 ± 0.033 | -0.014 ± 0.078 | 0.0005 ± 0.059 | 0.0125 ± 0.019 | 0.0045 ± 0.0035 | 0.006 ± 0.038 | -0.0145 ± 0.0021 | 0.107 ± 0.0099 | 0.0875 ± 0.00071
5 | HDF3CGF:Proliferation 72hr | 0.098 ± 0.023 | 0.23 ± 0.037 | 0.316 ± 0.013 | 0.301 ± 0.021 | -0.033 ± 0.083 | 0.0165 ± 0.086 | 0.04 ± 0.073 | -0.0015 ± 0.057 | 0.0385 ± 0.013 | 0.03 ± 0.037 | -0.0375 ± 0.005 | -0.0485 ± 0.019 | -0.048 ± 0.028 | -0.0185 ± 0.021 | 0.0055 ± 0.025 | -0.008 ± 0.037 | 0.076 ± 0.018 | -0.163 ± 0.079
6 | HDF3CGF:TIMP-1 | -0.0355 ± 0.04 | 0.0065 ± 0.0035 | 0.0265 ± 0.042 | 0.156 ± 0.016 | -0.006 ± 0.014 | 0.0105 ± 0.015 | 0.007 ± 0.0057 | -0.0065 ± 0.00071 | 0.002 ± 0.0042 | -0.007 ± 0.0085 | 0.0155 ± 0.059 | 0.0025 ± 0.05 | 0.0015 ± 0.0064 | -0.0155 ± 0.05 | -0.0145 ± 0.06 | -0.017 ± 0.1 | 0.0565 ± 0.011 | 0.117 ± 0.021
7 | KF3CT:CCL2/MCP-1 | 0.037 ± 0.0099 | -0.0155 ± 0.042 | -0.0485 ± 0.029 | -0.023 ± 0.038 | -0.012 ± 0.017 | 0 ± 0.027 | 0.0105 ± 0.053 | -0.0055 ± 0.0035 | -0.0305 ± 0.033 | 0.001 ± 0.052 | 0.0175 ± 0.032 | 0.02 ± 0.0042 | 0.0215 ± 0.018 | 0.0125 ± 0.005 | 0.012 ± 0.0085 | 0.0085 ± 0.021 | -0.015 ± 0.0014 | 0.01 ± 0.0099
8 | KF3CT:CD54/ICAM-1 | 0.0035 ± 0.013 | 0.018 ± 0.023 | 0.08 ± 0.013 | 0.09 | 0.0075 ± 0.013 | 0.011 ± 0.018 | -0.0025 ± 0.029 | 0.0055 ± 0.029 | 0.003 ± 0.0028 | 0.009 ± 0.0028 | -0.018 ± 0.0071 | -0.016 ± 0.0071 | -0.025 ± 0.0028 | 0.0035 ± 0.021 | -0.0155 ± 0.012 | -0.013 ± 0.0099 | -0.025 | -0.008 ± 0.0071
9 | KF3CT:CXCL8/IL-8 | 0 ± 0.044 | -0.0125 ± 0.0064 | -0.0175 ± 0.012 | -0.0105 ± 0.005 | 0.001 ± 0.013 | 0.0085 ± 0.028 | 0.018 ± 0.0014 | 0.001 ± 0.028 | 0.0005 ± 0.025 | 0.007 ± 0.0071 | -0.0465 ± 0.036 | -0.03 ± 0.014 | -0.0165 ± 0.03 | 0.001 ± 0.044 | -0.0015 ± 0.028 | 0.004 ± 0.02 | 0.001 ± 0.025 | 0.034 ± 0.014
10 | KF3CT:CXCL10/IP-10 | 0 ± 0.023 | -0.021 ± 0.027 | -0.015 ± 0.025 | -0.0225 ± 0.0078 | 0.0105 ± 0.035 | 0.0075 ± 0.032 | 0.0125 ± 0.023 | -0.0015 ± 0.0035 | -0.0105 ± 0.00071 | -0.011 ± 0.014 | -0.011 ± 0.0071 | 0.009 ± 0.0042 | -0.001 ± 0.017 | 0.0015 ± 0.015 | -0.008 ± 0.0099 | -0.0035 ± 0.0092 | -0.0235 ± 0.0021 | -0.023 ± 0.0057
11 | KF3CT:IL-1alpha | 0.0125 ± 0.018 | -0.0295 ± 0.005 | -0.0545 ± 0.0035 | -0.045 ± 0.02 | -0.0025 ± 0.0064 | 0.0025 ± 0.0092 | 0.001 ± 0.017 | -0.0055 ± 0.026 | 0.007 ± 0.013 | -0.0145 ± 0.026 | 0.012 ± 0.0085 | 0.011 | 0.0095 ± 0.0064 | -0.014 ± 0.031 | -0.018 ± 0.0099 | -0.017 ± 0.038 | 0.054 ± 0.02 | 0.071 ± 0.014
12 | KF3CT:PAI-I | -0.0085 ± 0.046 | -0.021 ± 0.013 | -0.0415 ± 0.0035 | -0.0715 ± 0.028 | 0.0045 ± 0.0092 | 0.023 ± 0.0085 | 0.0165 ± 0.0021 | -0.0005 ± 0.018 | -0.008 ± 0.0057 | 0.0025 ± 0.012 | -0.042 ± 0.0099 | -0.0205 ± 0.036 | -0.0375 ± 0.00071 | 0.002 ± 0.016 | -0.0055 ± 0.005 | 0.013 | 0.0045 ± 0.019 | -0.0045 ± 0.012
13 | KF3CT:SRB | 0.006 ± 0.011 | 0 ± 0.0042 | -0.003 ± 0.0028 | 0.0095 ± 0.016 | -0.005 | -0.009 ± 0.0014 | 0.002 ± 0.013 | 0.0025 ± 0.0021 | 0.0015 ± 0.005 | 0.0045 ± 0.00071 | -0.001 | -0.004 ± 0.0071 | 0.0085 ± 0.015 | -0.0045 ± 0.00071 | -0.005 ± 0.0057 | 0.0025 ± 0.0078 | 0.005 ± 0.013 | 0.0125 ± 0.0078
14 | KF3CT:TIMP-2 | -0.0205 ± 0.056 | -0.015 | 0.044 ± 0.02 | 0.005 ± 0.034 | -0.01 ± 0.013 | 0.007 ± 0.031 | 0.0205 ± 0.023 | -0.016 ± 0.016 | -0.0245 ± 0.022 | -0.019 ± 0.038 | -0.0245 ± 0.0092 | -0.007 ± 0.011 | 0.011 ± 0.037 | -0.0095 ± 0.026 | -0.019 ± 0.0085 | -0.007 ± 0.014 | 0.0105 ± 0.018 | 0.0265 ± 0.0092
15 | KF3CT:uPA | -0.0325 ± 0.016 | 0.0025 ± 0.018 | -0.001 ± 0.037 | 0.0035 ± 0.0021 | 0.0095 ± 0.0064 | 0.0045 ± 0.0078 | 0.004 ± 0.02 | 0.006 ± 0.011 | 0.008 ± 0.016 | 0.011 ± 0.028 | 0.0205 ± 0.011 | 0.019 ± 0.0042 | 0.011 ± 0.013 | 0.004 ± 0.0057 | 0.006 ± 0.011 | -0.0065 ± 0.025 | 0.014 ± 0.021 | 0.0325 ± 0.019
16 | LPS:CCL2/MCP-1 | -0.0165 ± 0.011 | -0.041 ± 0.0085 | -0.0235 ± 0.033 | -0.0655 ± 0.077 | 0.004 ± 0.0085 | -0.0155 ± 0.013 | -0.0015 ± 0.0021 | 0.0005 ± 0.015 | -0.012 ± 0.016 | 0.0145 ± 0.028 | 0.005 ± 0.011 | 0.022 ± 0.035 | 0.0325 ± 0.039 | 0.0055 ± 0.012 | -0.009 ± 0.03 | 0.0135 ± 0.04 | -0.0235 ± 0.00071 | 0.013 ± 0.025
